What was measured:
Type in all cases: in vivo, human
plasma BDNF = test: Plasma BDNF level by ELISA in the double-blind clinical trial; conditions: schizophrenic patients, after 11 weeks of treatment; FIG. 3D
Text: (§1) One hundred and thirty-seven Han Chinese schizophrenic patients and 67 Han Chinese healthy controls (age range: 20-59 years old) were recruited from the Department of Psychiatry at National Cheng Kung University Hospital and the National Defense Medical Center. All patients were screened for being used. The Chinese version of the SADS-L, which has good reliability and validity, was used to screen all participants for psychiatric conditions and whether they fit the DSM-IV diagnostic criteria for schizophrenia without any comorbidity. […]
(§2) Ten milliliters of whole blood was drawn and collected from each participant's antecubital vein at the screening visit (V), 0, 1, 2, 4, 6, 8, and 11 weeks. […] Plasma cytokine, CRP and BDNF concentrations were quantified using enzyme-linked immunosorbent assays (ELISA). A kit (Quantikine Human Cytokine kit; R&D Systems) and an ELISA reader (SpectraMax-M2; Molecular Devices) ELISA reader were used to analysis plasma IL-1β, TNF-α, CRP, and BDNF levels. […]

plasma IL-1β = test: Plasma IL-1β level by ELISA in the double-blind clinical trial; conditions: schizophrenic patients, FIG. 3A
Text: as §1, §2

plasma CRP = test: Plasma CRP level by ELISA in the double-blind clinical trial; conditions: schizophrenic patients, FIG. 3C
Text: One hundred and thirty-seven Han Chinese schizophrenic patients and 67 Han Chinese healthy controls (age range: 20-59 years old) were recruited from the Department of Psychiatry at National Cheng Kung University Hospital and the National Defense Medical Center. All patients were screened for being used. The Chinese version of the SADS-L, which has good reliability and validity, was used to screen all participants for psychiatric conditions and whether they fit the DSM-IV diagnostic criteria for schizophrenia without any comorbidity. Exclusion conditions were: 1) pregnant or nursing women; 2) women of childbearing potential not using adequate contraception as per investigator judgment or not willing to use contraception for the duration of study; 3) patients who had used dextromethorphan, other selective cyclooxygenase 2 inhibitors, or other anti-inflammatory medication within 1 week before the first dose of double-blind medication; 4) a major mental illness other than schizophrenia, including alcoholism and illegal substance use disorder; 5) a clinically significant medical condition, e.g., cardiac, hepatic, or renal disease with current evidence of poor control; 6) patient who had undergone electroconvulsive therapy within 4 weeks before the first dose of double-blind medication; 7) SGOT, SGPT, BUN, and creatinine levels/an SGOT, SGPT, BUN, or creatinine level greater than 3-fold the upper limit of normal. All the healthy controls were free of major and minor mental illness. […]
as §2

plasma TNF-α = test: Plasma TNF-α level by ELISA in the double-blind clinical trial; conditions: schizophrenic patients, FIG. 3B
Text: One hundred and thirty-seven Han Chinese schizophrenic patients and 67 Han Chinese healthy controls (age range: 20-59 years old) were recruited from the Department of Psychiatry at National Cheng Kung University Hospital and the National Defense Medical Center. All patients were screened for being used. The Chinese version of the SADS-L, which has good reliability and validity, was used to screen all participants for psychiatric conditions and whether they fit the DSM-IV diagnostic criteria for schizophrenia without any comorbidity. Exclusion conditions were: 1) pregnant or nursing women; 2) women of childbearing potential not using adequate contraception as per investigator judgment or not willing to use contraception for the duration of study; 3) patients who had used dextromethorphan, other selective cyclooxygenase 2 inhibitors, or other anti-inflammatory medication within 1 week before the first dose of double-blind medication; 4) a major mental illness other than schizophrenia, including alcoholism and illegal substance use disorder; 5) a clinically significant medical condition, e.g., cardiac, hepatic, or renal disease with current evidence of poor control; 6) patient who had undergone electroconvulsive therapy within 4 weeks before the first dose of double-blind medication; 7) SGOT, SGPT, BUN, and creatinine levels/an SGOT, SGPT, BUN, or creatinine level greater than 3-fold the upper limit of normal. All the healthy controls were free of major and minor mental illness. All research involving humans was reviewed and approved by the National Chung Kung University and National Defense Medical Center Institutional Review Boards before the study began.
This study was a double-blind, stratified, randomized, parallel-group, two-center clinical trial. The treatment was risperidone plus a double-blind add-on of randomly assigned DM or a placebo. Participants began the study immediately after they had been screened for eligibility (screening visit: V). The pre-treatment study phase consisted of a 7-day (V to 0 week) antipsychotic switch-over period for patients (patient hospitalized) who were taking oral antipsychotic medication other than risperidone alone at the screening, or who had been using depot medication for an entire cycle before the screening. […]
as §2

## Cc1nc2n(c(=O)c1CCN1CCC(c3noc4cc(F)ccc34)CC1)CCCC2 [Risp only, risperidone]
Plasma BDNF
  change in plasma BDNF levels: did not change
Plasma IL-1β; after 11 weeks of treatment, risperidone 1-6 mg/day, DM 60 mg/day
  change in plasma IL-1β levels: significant decrease
Plasma IL-1β
  time after which plasma IL-1β level fell: 8 weeks
Plasma CRP; before add-on treatment, mean±SEM
  plasma CRP level at start (first value of 'from ... to'): 2576.0±484.0
Plasma CRP; end of treatment, mean±SEM
  plasma CRP level at end (second value of 'from ... to'): 1946.0±369.6
Plasma CRP; over the study
  change in plasma CRP levels: tended to decrease but were not significantly different
Plasma TNF-α; end of study (11 weeks) vs visit
  plasma TNF-α levels at the end of the study: significantly higher
Plasma TNF-α; visit to 11 weeks
  course of plasma TNF-α levels during the study: rose significantly
Plasma TNF-α
  time after which plasma TNF-α levels rose significantly: 4 weeks
  time of peak plasma TNF-α level: 6 weeks

— patent US20140128412A1, “COMBINATION OF AN ANT[…] AN ANTI-INFLAMMATORY AGENT” (priority 2011, published 2014)
